Converted amounts (≈) assume the structure as drawn.
What was measured:
[1] = target: T1, Type-VI α-amylase (porcine pancreas) (Sus scrofa, UniProt P00690); assay: In vitro α-amylase inhibition assay (DNSA); assay type: biochemical; conditions: for inhibition at 31.05 µg/mL / inhibition at 62.5 µg/mL / inhibition at 125 µg/mL / inhibition at 250 µg/mL / inhibition at 500 µg/mL / inhibition at 1000 µg/mL: read-out: % α-Amylase Inhibition Mean ± SEM; for IC50: linear regression of % inhibition vs concentration
T1 construct: purchased Sigma Aldrich (Darmstadt, Germany); host or cells: porcine pancreas
T1 sequence (P00690 16-511): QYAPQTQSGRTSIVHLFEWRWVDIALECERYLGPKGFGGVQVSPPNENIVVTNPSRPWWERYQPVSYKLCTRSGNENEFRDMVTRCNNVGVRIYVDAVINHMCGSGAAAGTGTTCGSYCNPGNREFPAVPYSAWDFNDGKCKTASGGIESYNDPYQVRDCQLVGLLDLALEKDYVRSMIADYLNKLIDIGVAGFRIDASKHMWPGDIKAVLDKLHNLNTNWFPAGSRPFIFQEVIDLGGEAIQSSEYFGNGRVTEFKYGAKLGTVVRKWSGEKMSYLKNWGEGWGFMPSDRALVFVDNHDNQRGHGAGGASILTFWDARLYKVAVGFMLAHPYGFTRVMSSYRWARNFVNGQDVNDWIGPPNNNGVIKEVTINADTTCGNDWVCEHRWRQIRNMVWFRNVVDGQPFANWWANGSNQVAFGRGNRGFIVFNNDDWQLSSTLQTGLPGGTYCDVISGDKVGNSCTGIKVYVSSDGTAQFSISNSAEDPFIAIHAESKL
Procedure: The α-amylase inhibition activity of morin was assessed using 3, 5-dinitrosalicylic acid (DNSA) assay. Morin, phloroglucinol, and 1-hexyl benzene were dissolved in mixture of 10% DMSO, 0.02M Na2HPO4/NaH2PO4 buffer, and 0.006M NaCl (pH 6.9) and finally dilutions (31.05, 62.5, 125, 250, 500 and 1000 µg/mL) were prepared. In total, 200 μL α-amylase (2 units/mL) was mixed with 200 μL morin and incubated at 30 °C for 10 min. After that, 200 μL starch (1%) was added to each serial dilution and incubated for 3 min. To stop the reaction 200 μL sodium potassium tartrate tetrahydrate reagent, 2M NaOH, and […] DNSA (96mM) reagent were added to the reaction mixture. The reaction mixtures were boiled for 10 min at 85–90 °C in a water bath. After cooling the mixture was diluted with 5mL distilled water and finally at 540 nm absorbance was recorded. A blank solution was prepared containing only isolated compound morin but no enzyme. […] The α-amylase enzyme inhibitory activity was calculated by the following Equation (2): (2) % α − amylase Inhibition =control absorbance−sample absorbance/control absorbance×100
All the in vitro and in vivo experiments were analyzed in three replicates and determined as mean ± SEM. Student’s t-test and one way ANOVA followed by Dunnett’s post hoc multiple comparison test was used. p ≤ 0.05 were considered as significant. Linear regression analysis was used to calculate the IC50 value for % DPPH, ABTS, α-amylase, and α-glucosidase inhibition against the different concentrations of the test samples by means of Excel program 2007.

Salmonella typhi = assay: Agar well diffusion, zone of inhibition; assay type: cell-based; conditions: 24 h; for zone of inhibition at 100 µg/mL: Salmonella enterica, TYPHI; for Zone of Inhibition: Salmonella typhi, 100 µg/mL, 37 °C
Staphylococcus aureus = assay: Broth dilution MIC determination; assay type: cell-based; conditions: 37 °C, 24 h, read-out: Minimum Inhibitory Concentrations
Procedure: Stock solutions of morin, phloroglucinol, and 1-hexyl benzene were prepared in dimethylsulphoxide (DMSO). […] Sterile centrifuge tubes were arranged in sets of rows for each bacterial inoculum to cover the different concentration of isolated compounds in triplicate. […] A sterility control tube and a growth control tube were also incubated (for each strain). The tubes were incubated at 37 °C for 24 h. After incubation, 40 μL of a 0.4 mg/mL solution of para iodonitrotetrazolium (INT) chloride was added to each tube as an indicator of microbial growth. […] The evaluation for the inhibition of microbial growth was based on the color change of INT to pink, while no color change indicates the absence of growth. The MIC is the lowest concentration of the compounds at which there is no visible growth in the tubes. The concentration that inhibited bacterial growth completely (the first clear tube) was taken as the MIC value. Experiments were performed in triplicate and mean values are presented. […] A negative control experiment was conducted using only DMSO.

[2] = tested on: STZ-induced diabetic rats; assay: Antioxidant enzymes and oxidative stress markers in pancreas tissue homogenates of STZ-induced diabetic rats; assay type: in vivo, Sprague Dawley adult albino rats
Procedure: The pancreas tissue (1 g) was isolated from Sprague Dawley rats, washed with cold saline solution and blotted dried. A weighed portion of the pancreas tissue was homogenized on ice and then centrifuged for 15 min at 3500 rpm at 4 °C. The supernatant was then taken and stored at −20 °C until assessed for different enzymes.
The activities of reduced glutathione (GSH) level were determined in the pancreatic tissues according to the previously established method. About 300 µL of tissue supernatant was centrifuged for 5 min at 3500 rpm following deproteinization with 300 µL of 10% trichloroacetic acid. In total, 200 µL of the resulting supernatant of each sample (at concentrations 2, 5, 10, 15, 30, and 50 µg/mL) was mixed with 50 µL of Ellman’s reagent (5,5′-dithiobis-(2-nitro-benzoic acid)) (DTNB) then centrifuged at 3000 rpm for 15 min. The absorbance was recorded at 412 nm. A series of standards treated in a similar way were also run to determine the glutathione content. The amount of glutathione is expressed as µmole/mg of tissue protein.
. […] The pink colored TBARS was measured photometrically at 532 nm and tissue MDA was determined from a standard curve and is expressed as nmole/mg of tissue protein. […]

SMILES: CCCCCCc1ccccc1 [1-Hexyl benzene, 1-hexylbenzene]
- inhibition at 31.05 µg/mL [1]: 22 ± 1.1%
- inhibition at 62.5 µg/mL [1]: 28 ± 2.1%
- inhibition at 125 µg/mL [1]: 37 ± 1.4%
- inhibition at 250 µg/mL [1]: 44 ± 0.5%
- inhibition at 500 µg/mL [1]: 49 ± 2.1%
- inhibition at 1000 µg/mL [1]: 55 ± 1.5%
- IC50 [1]: 709 µM
- zone of inhibition at 100 µg/mL (Salmonella typhi): 7.4 ± 1.2 mm
- Zone of Inhibition (Salmonella typhi): 7.4 ± 1.2 mm
- MIC (Staphylococcus aureus): 205 ± 2.1 µg/mL (≈ 1260 µM)

SMILES: O=c1c(O)c(-c2ccc(O)cc2O)oc2cc(O)cc(O)c12 [Morin, 2-(2,4-Dihydroxyphenyl)-3,5,7-trihydroxychromen-4-one]
- inhibition at 31.05 µg/mL [1]: 37 ± 1.1%
- inhibition at 62.5 µg/mL [1]: 44 ± 2.1%
- inhibition at 125 µg/mL [1]: 54 ± 1.4%
- inhibition at 250 µg/mL [1]: 60 ± 0.5%
- inhibition at 500 µg/mL [1]: 67 ± 1.4%
- inhibition at 1000 µg/mL [1]: 75 ± 1.5%
- IC50 [1]: 182 µM
- zone of inhibition at 100 µg/mL (Salmonella typhi): 16 ± 1.2 mm
- Zone of Inhibition (Salmonella typhi): 16 ± 1.2 mm
- MDA level (lipid peroxidation) ([2]; morin 2, 5, 10, 15, 30, and 50 µg/kg body weight, pancreas tissue homogenates): significantly (p < 0.05, p < 0.01, p < 0.001) decreased
- GPx activity ([2]; morin, pancreatic tissues homogenates of diabetic rats): significantly increased
- MIC (Staphylococcus aureus): 68 ± 1.3 µg/mL (≈ 225 µM)

SMILES: Oc1cc(O)cc(O)c1 [Phloroglucinol, Benzene-1,3,5-triol]
- inhibition at 31.05 µg/mL [1]: 29 ± 1%
- inhibition at 62.5 µg/mL [1]: 32 ± 1.4%
- inhibition at 125 µg/mL [1]: 39 ± 1.5%
- inhibition at 250 µg/mL [1]: 42 ± 0.4%
- inhibition at 500 µg/mL [1]: 55 ± 1.1%
- inhibition at 1000 µg/mL [1]: 63 ± 0.5%
- IC50 [1]: 753 µM
- zone of inhibition at 100 µg/mL (Salmonella typhi): 12 ± 1.1 mm
- Zone of Inhibition (Salmonella typhi): 12 ± 1.1 mm
- MIC (Staphylococcus aureus): 192 ± 2.3 µg/mL (≈ 1520 µM)
